Test results from patent publication US20100063085A1, “METHOD OF TREATING LEARNING IMPAIRMENT IN DOWN'S SYNDROME SUBJECTS” (University Court of The University of Dundee, priority 2008, published 2010).
Read-outs that look alike come from different tables or passages of the source.

What was measured:
Assay type in all cases: biochemical
[1] = target: SAPK2a/p38 (Homo sapiens, UniProt Q16539); experiment: SAPK2a/p38 33P kinase assay; details: read-out: SAPK2a/p38 activity as percentage of control without inhibitor
SAPK2a/p38, sequence (Q16539 whole entry): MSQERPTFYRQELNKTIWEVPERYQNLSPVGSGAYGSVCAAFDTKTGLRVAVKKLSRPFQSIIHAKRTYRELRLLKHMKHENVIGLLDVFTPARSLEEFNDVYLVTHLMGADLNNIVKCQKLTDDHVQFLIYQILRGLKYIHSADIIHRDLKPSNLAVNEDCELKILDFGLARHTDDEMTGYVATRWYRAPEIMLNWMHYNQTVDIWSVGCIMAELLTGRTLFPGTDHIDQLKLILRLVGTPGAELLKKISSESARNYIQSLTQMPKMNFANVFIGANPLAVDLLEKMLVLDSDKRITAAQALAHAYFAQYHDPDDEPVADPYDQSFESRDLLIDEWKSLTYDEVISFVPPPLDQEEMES
Protocol: (§1) All assays (25.5 μl) were carried out at room temperature (21° C.) and were linear with respect to time and enzyme concentrations under the conditions used. Assays were performed for 30 minutes except assays for LCK and PKB which were performed for 15 minutes using Multidrop Micro reagent dispensers (Thermo Electron Corporation, Waltham, Mass. 02454, USA) in a 96-well format. The concentration of […] [γ-^33P] ATP (800 cpm/pmol) in the assays was one of three concentrations (5, 20 or 50 μM) in order to be at or below Km for ATP for the enzyme. Assays were initiated with MgATP and stopped by addition of 5 μl of 0.5M orthophosphoric acid. Assays were then harvested onto P81 filterplates using a unifilter harvester (PerkinElmer, Boston, Mass. 02118, USA), with a wash buffer of 50 mM orthophosphoric acid. Filterplates were then air dried overnight. 10 μl of Microscint O was added per well prior to counting for radioactivity.
(§2) MKK1, JNK/SAPK1c, SAPK2a/p38, SAPK2b/p38β2, SAPK3/p38γ, SAPK4/p38δ, MAPK2/ERK2, MAPKAP-K1β, MAPKAP-K2, MSK1, PRAK, PKA, PKCα, PDK1, SGK, p70S6K, GSK3β, ROCK-II, PRK2, AMPK, CHK1, CHK2, CK2, PHK, LCK, were assayed according to Davies et al., (Davies, S. P., Reddy, H., Caivano, M. and Cohen, P. Biochem. J. 351, 95-105, 2000.
(§3) CSK and CDK2/cyclinA, were assayed according to Bain et al. (Bain J, McLauchlan H, Elliott M, Cohen P. Biochem J. 371, 199-204, 2003., except that ATP concentrations were either 5, 20 or 50 micromolar so that they were at or below the Km for ATP. The ATP concentrations used were as follows, 5 μM for assays of MKK1, SAPK3, SAPK4, GSK3β, PRK2 CK2 20 μm for assays of JNK, SAPK2β, MAPKAP-K2, MSK1, PRAK, PKA, […], PDK1, SGK, p70S6K, ROCK-II, CHK1, CHK2, CSK, CDK2, and 50 μM for assays of SAPK2a, MAPK2/ERK2, AMPK, LCK, PHK and MAPKAP-K1β.

[2] = target: T1, PDK1 (Homo sapiens, UniProt O15530); experiment: PDK1 33P kinase assay; details: for remaining activity at 1 µM: inhibitor 1 μM, read-out: PDKI activity as percentage of control without inhibitor; for remaining activity at 10 µM: inhibitor 10 μM, read-out: PDK1 activity as percentage of control without inhibitor
T1 sequence (O15530 1-556): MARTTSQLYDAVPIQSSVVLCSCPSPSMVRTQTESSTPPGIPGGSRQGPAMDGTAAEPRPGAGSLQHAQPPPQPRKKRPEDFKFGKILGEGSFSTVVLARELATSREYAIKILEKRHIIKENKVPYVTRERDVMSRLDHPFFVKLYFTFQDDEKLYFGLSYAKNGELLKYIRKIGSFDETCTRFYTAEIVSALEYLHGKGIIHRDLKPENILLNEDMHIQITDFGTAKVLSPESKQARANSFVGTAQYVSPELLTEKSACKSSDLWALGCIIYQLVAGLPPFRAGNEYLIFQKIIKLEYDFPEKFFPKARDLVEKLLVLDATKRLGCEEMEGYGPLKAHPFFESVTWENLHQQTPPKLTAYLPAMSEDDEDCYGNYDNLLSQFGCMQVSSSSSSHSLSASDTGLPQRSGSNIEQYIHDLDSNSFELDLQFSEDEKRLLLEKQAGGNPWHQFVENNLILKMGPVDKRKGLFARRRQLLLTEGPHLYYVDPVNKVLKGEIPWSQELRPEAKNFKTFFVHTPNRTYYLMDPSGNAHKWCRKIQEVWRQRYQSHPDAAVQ
Protocol: as §1, §2, §3

[3] = target: PKBb (Homo sapiens, UniProt P31751, S474D); experiment: PKBb 33P kinase assay; details: read-out: PKBb activity as percentage of control without inhibitor
PKBb, sequence (P31751 120-481 S474D limits assumed): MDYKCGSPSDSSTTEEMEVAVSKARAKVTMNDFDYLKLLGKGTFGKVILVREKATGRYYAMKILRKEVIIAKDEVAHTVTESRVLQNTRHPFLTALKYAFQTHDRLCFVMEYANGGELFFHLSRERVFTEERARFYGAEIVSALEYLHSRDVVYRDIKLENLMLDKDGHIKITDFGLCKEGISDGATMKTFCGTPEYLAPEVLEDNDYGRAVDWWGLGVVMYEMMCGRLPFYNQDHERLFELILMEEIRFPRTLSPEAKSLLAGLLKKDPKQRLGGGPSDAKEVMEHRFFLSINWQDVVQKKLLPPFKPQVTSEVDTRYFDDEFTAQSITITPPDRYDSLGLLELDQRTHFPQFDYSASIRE
Protocol: as §1
The following kinases were assayed against the substrates indicated. Aurora B was assayed against the substrate peptide […] (300 μM), ERK8 and MST-2 were both assayed against MBP (0.33 mg/ml). IKKβ was assayed against the substrate peptide […] (300 μM), JNK3 was assayed against 3 μM ATF2[19-96]. MAPKAP-K3 and PKD1 were both assayed against […] (30 μM), MARK3 was assayed against CHKtide ([…]) substrate peptide (300 μM). MNK1 and MNK2 were both assayed against eIF4E protein (0.5 mg/ml). NEK7 was assayed against […] (300 μM), PIM2 was assayed against […] (300 μM), ΔPH PKBβ-S474D was assayed against Crosstide (30 μM), PLK1 was assayed against […] (300 μM). PRK2 was assayed against Long S6 peptide, […] (30 μM), RSK2 was assayed against […] (30 μM), SRC was assayed against cdc2 peptide, […], (300 μM) and SRPK1 was assayed against peptide […] (300 μM). All enzymes were diluted in 50 mM Tris/HCl pH 7.5, 0.1 mM EGTA, 1 mg/ml BSA, 0.1% β-mercaptoethanol buffer and assayed in an incubation containing 50 mM Tris/HCl pH7.5, 0.1 mM EGTA, 0.1% β-mercaptoethanol, CAMK-1 (5-20 mU) diluted in 50 mM Tris/HCl pH 7.5, 0.1 mM EGTA, 1 mg/ml BSA, 0.1% β-mercaptoethanol is assayed against substrate peptide […] in an incubation containing 50 mM Tris/HCl pH 7.5, 0.1 mM EGTA, 0.5 mM CaCl2, 0.3 μM calmodulin, 0.1% β-mereaptoethanol, 300 μM substrate peptide, 10 mM magnesium acetate and 0.05 mM [^33P-γ-ATP] (500-1000 cpm/pmole). EF2K (5-20 mU) diluted in 50 mM Hepes pH 6.6, 0.1% β-mercaptoethanol, 1 mg/ml BSA is assayed against a substrate peptide […] in an incubation containing 50 mM Hepes pH 6.6, 0.2 mM CaCl2, 0.3 μM Calmodulin, 0.05% b-mercaptoethanol, 300 μM substrate peptide, 10 mM magnesium acetate and 0.05 mM [^33P-γ-ATP] (500-1000 cpm/pmole).
ΔPH-PKBbeta-S474D (5-20 mU diluted in 50 mM Tris pH 7.5, 0.1 mM EGTA, 0.1% β-mercaptoethanol, 1 mg/ml BSA) is assayed against a modified Crosstide peptide ([…]) in a final volume of 25.5 μl containing 50 mM Tris pH 7.5, 0.05% β-mercaptoethanol, 30 μM substrate peptide, 10 mM magnesium acetate and 0.05 mM [^33P- γATP] (50-1000 cpm/pmole) and incubated for 30 min at room temperature.

[4] = test system: CK1; experiment: CK1 33P kinase assay
Protocol: as §1

Molecule `COc1ccc2c3c([nH]c2c1)C(C)=NCC3` [Harmaline] has a remaining activity at 1 µM [1] of 89%, a remaining activity at 10 µM [1] of 86% and a remaining activity at 1 µM [2] of 100%. It also gave a remaining activity at 10 µM [2] of 95%, a remaining activity at 1 µM ([3]; inhibitor 1 μM) of 97% and a remaining activity at 10 µM ([3]; inhibitor 10 μM) of 96%. For the same molecule, the “CK1 activity as percentage of control without inhibitor” value ([4]; inhibitor 1 μM) was 84% and the “CK1 activity as percentage of control without inhibitor” value ([4]; inhibitor 10 μM) was 65%.

Work on `COc1ccc2c(c1)[nH]c1c(C)nccc12` [Harmine] yielded a remaining activity at 1 µM [1] of 95%, a remaining activity at 10 µM [1] of 81% and a remaining activity at 1 µM [2] of 89%. For the same molecule, the remaining activity at 10 µM [2] was 95%, the remaining activity at 1 µM [3] was 94% and the remaining activity at 10 µM [3] was 101%. For the same molecule, the “CK1 activity as percentage of control without inhibitor” value ([4]; inhibitor 1 μM) was 61% and the “CK1 activity as percentage of control without inhibitor” value ([4]; inhibitor 10 μM) was 21%.

`CC1=NCCc2c1[nH]c1cc(O)ccc21` [Harmalol] gave a remaining activity at 1 µM ([1]; inhibitor 1 μM) of 95%, a remaining activity at 10 µM ([1]; inhibitor 10 μM) of 74% and a remaining activity at 1 µM [2] of 88%. For the same molecule, the remaining activity at 10 µM [2] was 96%, the remaining activity at 1 µM ([3]; inhibitor 1 μM) was 103% and the remaining activity at 10 µM ([3]; inhibitor 10 μM) was 77%. For the same molecule, the “CK1 activity as percentage of control without inhibitor” value ([4]; inhibitor 1 μM) was 83% and the “CK1 activity as percentage of control without inhibitor” value ([4]; inhibitor 10 μM) was 48%.
